Patent US12129237B2, “Substituted diaminocarboxamide and diaminocarbonitrile pyrimidines, compositions thereof, and methods of treatment therewith” (SIGNAL PHARMACEUTICALS, LLC, priority 2011, dated 2024)

These molecules were tested against T1, JNK1 (Homo sapiens, UniProt P45983) (assay: JNK1 biochemical assays (one or more of: time resolved fluorescence, Z'-LYTE Cascade, radioactive)). Conditions: one or more of the JNK1 biochemical assays; read-out: Act. Level (JNK1 IC50 activity level).
T1 construct: purchased Carna Biosciences
T1 sequence (P45983 whole entry): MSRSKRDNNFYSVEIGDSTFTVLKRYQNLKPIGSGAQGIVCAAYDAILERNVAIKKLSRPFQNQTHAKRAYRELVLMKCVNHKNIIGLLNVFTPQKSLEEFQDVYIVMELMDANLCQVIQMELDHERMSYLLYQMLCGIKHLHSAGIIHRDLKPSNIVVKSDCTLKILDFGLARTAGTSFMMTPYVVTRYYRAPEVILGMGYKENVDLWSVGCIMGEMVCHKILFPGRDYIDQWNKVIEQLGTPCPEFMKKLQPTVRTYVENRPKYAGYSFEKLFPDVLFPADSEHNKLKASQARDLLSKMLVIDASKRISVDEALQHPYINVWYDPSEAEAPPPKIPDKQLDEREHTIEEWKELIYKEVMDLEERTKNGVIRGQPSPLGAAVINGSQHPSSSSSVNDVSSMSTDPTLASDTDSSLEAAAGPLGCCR

`CC(C)Nc1nc(NC23CCC(O)(CC2)CC3)ncc1C(N)=O` [Example 202, 2-(4-hydroxybicyclo[2.2.2]octan-1-ylamino)-4-(isopropylamino)pyrimidine-5-carboxamide] and `CN[C@H]1CC[C@H](Nc2ncc(C(N)=O)c(NC(C)C)n2)CC1` [Example 214, 4-(isopropylamino)-2-((1r,4r)-4-(methylamino)cyclohexylamino)pyrimidine-5-carboxamide] cannot be ordered by IC50: < 200 nM for the first, < 200 nM for the second.

`CC(=O)N[C@H]1CC[C@H](Nc2ncc(C(N)=O)c(NC(C)C)n2)CC1` [Example 203, 2-((1r,4r)-4-acetamidocyclohexylamino)-4-(isopropylamino)pyrimidine-5-carboxamide] and `CCO[C@H]1CC[C@H](Nc2ncc(C(N)=O)c(NC(C)(C)C)n2)CC1` [Example 211, 4-(tert-butylamino)-2-((1r,4r)-4-ethoxycyclohexylamino)pyrimidine-5-carboxamide] cannot be ordered by IC50: < 200 nM for the first, < 200 nM for the second.

Compared with `NC(=O)c1cnc(N[C@H]2CC[C@H](OC3CC3)CC2)nc1N[C@@H]1CCC[C@H](O)C1` [Example 205, 2-((1r,4R)-4-cyclopropoxycyclohexylamino)-4-((1R,3S)-3-hydroxycyclohexylamino)pyrimidine-5-carboxamide], `CNC(=O)c1cnc(N[C@H]2CC[C@H](OC)CC2)nc1N[C@@H]1CCC[C@H](O)C1` [Example 206, 4-((1R,3S)-3-hydroxycyclohexylamino)-2-((1r,4R)-4-methoxycyclohexylamino)-N-methylpyrimidine-5-carboxamide] is higher in IC50: < 200 nM for the first, 200 to 800 nM for the second.

`C[C@@H]1CC[C@@H](Nc2nc(NC3CCOCC3)ncc2C(N)=O)C[C@H]1O` [Example 208, 4-((1R,3R,4R)-3-hydroxy-4-methylcyclohexylamino)-2-(tetrahydro-2H-pyran-4-ylamino)pyrimidine-5-carboxamide] and `NC(=O)c1cnc(N[C@H]2CC[C@H](O)CC2)nc1NC1CC(F)(F)C1` [Example 217, 4-(3,3-difluorocyclobutylamino)-2-((1r,4r)-4-hydroxycyclohexylamino)pyrimidine-5-carboxamide] cannot be ordered by IC50: < 200 nM for the first, < 200 nM for the second.

`CCO[C@H]1CC[C@H](Nc2ncc(C(N)=O)c(N[C@@H]3CCC[C@@H]3CO)n2)CC1` [Example 209, 2-((1r,4R)-4-ethoxycyclohexylamino)-4-((1R,2S)-2-(hydroxymethyl)cyclopentylamino)pyrimidine-5-carboxamide] and `NC(=O)c1cnc(N[C@H]2CC[C@H](O)CC2)nc1NCCC1CCC1` [Example 219, 4-(2-cyclobutylethylamino)-2-((1r,4r)-4-hydroxycyclohexylamino)pyrimidine-5-carboxamide] cannot be ordered by IC50: < 200 nM for the first, < 200 nM for the second.

`CC(C)(C)Nc1nc(N[C@H]2CC[C@H](OCC(F)(F)F)CC2)ncc1C(N)=O` [Example 212, 4-(tert-butylamino)-2-((1r,4r)-4-(2,2,2-trifluoroethoxy)cyclohexylamino)pyrimidine-5-carboxamide] and `NC(=O)c1cnc(N[C@H]2CC[C@H](O)CC2)nc1NCCC1CC1` [Example 218, 4-(2-cyclopropylethylamino)-2-((1r,4r)-4-hydroxycyclohexylamino)pyrimidine-5-carboxamide] cannot be ordered by IC50: < 200 nM for the first, < 200 nM for the second.

`CC(C)(C)Nc1ncc(C(N)=O)c(N[C@@H]2CCC[C@](C)(O)C2)n1` [Example 213, 2-(tert-butylamino)-4-((1R,3S)-3-hydroxy-3-methylcyclohexylamino)pyrimidine-5-carboxamide] and `CO[C@H]1CC[C@](C)(Nc2ncc(C(N)=O)c(N[C@@H]3CCC[C@H](O)C3)n2)CC1` [Example 216, 4-((1R,3S)-3-hydroxycyclohexylamino)-2-((1r,4R)-4-methoxy-1-methylcyclohexylamino)pyrimidine-5-carboxamide] cannot be ordered by IC50: < 200 nM for the first, < 200 nM for the second.

For `CO[C@H]1CC[C@H](Nc2ncc(C(N)=O)c(N[C@]3(C)CCC[C@H](O)C3)n2)CC1` [Example 215, 4-((1R,3S)-3-hydroxy-1-methylcyclohexylamino)-2-((1r,4R)-4-methoxycyclohexylamino)pyrimidine-5-carboxamide], the IC50 was < 200 nM.
